In patent publication US20070155687A1, “Methods and compositions for altering cell function” (Alltech, Inc., priority 2005, published 2007):

Experiments:
calpain-5 = assay: Expression level of calpain genes after selenium administration; assay type: in vivo; settings: signed change (+ up, − down); tissue not stated; * not explained
Experimental: Compositions and methods of the present invention were analyzed to determine if they were capable of altering the expression levels of calpain genes. Compositions comprising various forms of selenium (e.g., SeM, Sod-sel, and SEL-PLEX) were administered to subjects and the expression levels of calpain genes monitored. The expression level of calpain-5 was altered by treatment in the following ways: free selenomethionine (SM)+1.32*, Sod-sel−1.07, SEL-PLEX−1.44*.

CORS-26 = assay: Cerebral cortex gene expression: CORS-26; assay type: in vivo; settings: mouse cerebral cortex; diet 1 ppm Se, 100 days; vs selenium deficient
Excerpt: (§1) Animal Care. Male C57BL/6J mice were housed singly and started on the experimental diets described below immediately after weaning (21 days of age). The mice were maintained in the Shared Aging Rodent Facility at the William S. Middleton Memorial Veterans Administration Medical Center (Madison, Wis.). Temperature and humidity were maintained at constant levels. Room light was controlled to provide 12-hr cycles of light and dark.
(§2) Experimental diets were created by Harlan Teklad (Madison, Wis.). Selenium content of the diets was determined by Covance Inc. (Madison, Wis.). Five (5) animals were included in each of the following treatment groups: a diet deficient in selenium (SD); a diet supplemented with selenomethionine (SM, obtained from Sigma, St. Louis, Mo.) such that the final selenium content of the diet was one (1) part per million; a diet supplemented with sodium selenite (SS, Sigma) such that the final concentration of selenium in this diet was one (1) part per million; or a diet supplemented with the yeast selenium SEL-PLEX (SP, Alltech, Lexington, Ky), such that the final concentration of selenium in this diet was one (1) part per million. SEL-PLEX. […]
(§3) Tissue sample preparation and microarray analysis. […] For intestinal expression studies, the intestine was flushed twice with saline solution and small intestine was measured and divided in three equal segments. […]

[1] = Body weight of mice on selenium diets; assay type: in vivo, mouse; settings: diet 1 ppm Se, 100 days; compared across diets incl. selenium deficient diet (FIG. 1)
Excerpt: as §1
Experimental diets were created by Harlan Teklad (Madison, Wis.). Selenium content of the diets was determined by Covance Inc. (Madison, Wis.). […]
Thus, it was an object of the present invention to determine whether compositions and methods of the present invention could alter the expression levels (e.g., niRNA levels) of various genes. One group of genes analyzed were genes classically associated with selenium. As described above, the expression levels of genes were analyzed between mice with and without dietary selenium, or, between mice fed different sources of selenium) (See, e.g., Table 1, below).

[2] = tested on: Glutathione S-transferase, mu3 (Gstm3); assay: Intestinal gene expression: Gstm3; assay type: in vivo; settings: mouse intestine; diet 1 ppm Se, 100 days; vs Se-deficient diets; negative = down; NS = not significant
Excerpt: as §1, §2, §3

[3] = tested on: Glutathione S-transferase, mu2 (Gstm2); assay: Intestinal gene expression: Gstm2; assay type: in vivo; settings: mouse intestine; diet 1 ppm Se, 100 days; vs Se-deficient diets; negative = down; NS = not significant
Excerpt: as §1, §2, §3

C[Se]CC[C@H](N)C(=O)O [SeM, selenomethionine]
expression level of calpain-5 altered by treatment (calpain-5): +1.32
CORS-26 expression, reduction in expression (CORS-26): no alteration

O=[Se](O)O [Sod-sel, sodium selenite]
body weights of mice [1]: No significant differences
FC Gstm3 expression [2]: −2.7 fold
FC Gstm2 expression [3]: −2.1 fold
